Here are results for 2 molecules from patent EP4623908A1, “USE OF (-)-EPIGALLOCATECHIN GALLATE COMPOUND” (CF Pharmtech, Inc., priority 2022, dated 2024).

The conditions of data set [1]: cited from earlier work.
The subject of data set [2] is Pulmonary Fibrosis Induced by Bleomycin in Rats. Nature of the data set: Bleomycin-induced pulmonary fibrosis model in rats (Example 5). The data set is classed as in vivo, SD rats. The procedure: This study aims to compare the effects of different administration methods, including oral gavage of EGCG, tracheal nebulization of pirfenidone solution, and tracheal nebulization of EGCG at different doses, on the collagen content in lung tissues and pathological observations of rats with bleomycin-induced pulmonary fibrosis. The therapeutic effect of inhaled EGCG on rat pulmonary fibrosis was evaluated.
The solvents for the EGCG nebulization solution, modeling agents, and their solvents are as described in Example 4. The positive control drug is pirfenidone (purity 99%, pharmaceutical grade), with the solvent components consisting of NaCl and citric acid, forming a clear liquid.
SPF-grade SD rats, 6-9 weeks old with a weight of 200-300g, totaling 88 rats, were randomly divided into the following groups: • Sham operation group (normal control) (8 rats) • Pulmonary fibrosis model control group (10 rats) • Oral gavage EGCG group 1 (10 rats) • Oral gavage EGCG group 2 (10 rats) • Tracheal Nebulization EGCG solution groups 1-4 (10 rats per group, total 40 rats) • Tracheal Nebulization pirfenidone solution group (10 rats)
On D1, the normal control group was administered solvent 2 (saline injection solution, 1 mL/kg) via tracheal nebulization, while all other groups were administered bleomycin (2.5 mg/kg, 1 mL/kg) via tracheal nebulization twice a day (morning and afternoon) to establish the model. On D8, the body weights of the animals were recorded. From D10 to D28, the normal control and pulmonary fibrosis model groups were treated with solvent 1 via tracheal nebulization, while the remaining groups were administered EGCG or pirfenidone once daily at the following doses and administration methods: • Oral gavage EGCG group 1 and 2: 30 mg/kg, 60 mg/kg • Tracheal Nebulization EGCG group 1-4: 0.05 mg/kg, 0.4 mg/kg, 0.8 mg/kg, 1.6 mg/kg • Tracheal Nebulization pirfenidone solution group: 0.9 mg/kg (reference dose from M.W. Surber et al., ATS POSTER, 2014)
On D29, all animals were euthanized for dissection. During the necropsy, the lungs, trachea, and bronchi were examined for abnormalities. Left lung tissue was preserved at below -60°C for hydroxyproline content detection, and right lung tissue was prepared for pathological sectioning. Hematoxylin and eosin (HE) staining and Masson staining were performed for pathological morphological observations and fibrosis evaluation.
All groups were compared to the model group using statistical analysis via Kruskal-Wallis test. The results are indicated as follows: • *P < 0.05: statistically significant difference • **P < 0.01: highly significant difference • ***P < 0.001: extremely significant difference • ****P < 0.0001: extremely highly significant difference

For data set [3] the following is noted: animal experiments; inhalation; cited from earlier work.
For data set [4] the following is noted: cited from earlier work. The source holds these as a separate data set.
[5] abbreviates: nebulized 100 mg vs oral 801 mg.

Consider `COC(=O)c1ccc2c(c1)NC(=O)/C2=C(\Nc1ccc(N(C)C(=O)CN2CCN(C)CC2)cc1)c1ccccc1` [nintedanib], for which the “diarrhea in clinical study participants” value in data set [1] (oral 150 mg twice daily (BID)) is recorded as “up to 61.5%”.

Take `Cc1ccc(=O)n(-c2ccccc2)c1` [pirfenidone]: the “Hydroxyproline Content” value in data set [2] (rat lung tissue, positive control, Inh 0.9 mg/kg once daily D10 to D28, Mean ±SEM) turned out to be 0.587 ± 0.059 µg/µL. Further, the “hydroxyproline content in rat lungs, difference from the model group” value in data set [2] (tracheal nebulization of pirfenidone solution 0.9 mg/kg) is “not statistically significant”. Moreover, in data set [1] (oral 801 mg three times daily (TID)), the “photosensitivity reactions in patients” value is “up to 51%”. Moreover, the “half-life in the lungs” value in data set [3] is reported as “about 10 minutes”. Moreover, in data set [4] (inhalation), the plasma drug concentrations was 807 to 1370 ng/mL. In data set [4] (setting [5]), the “Cmax in epithelial lining fluid (ELF) relative to the Cmax of the oral dose (higher)” value is 35 times and the “systemic exposure relative to the oral dose (lower)” value was “about 15 times”.
